For 91 compounds, melting point results are on record in a melting point compilation (Tetko et al.; mined from patent text by program, amines drawn as free bases though some values may be those of a salt).

On to `N#Cc1ccc2c(c1)OCC21C(=O)N(Cc2ccc3c(c2)OCCO3)c2ccccc21` (stereo unspecified), for which the melting point (as a rule, the temperature, or range, at which the solid turns liquid) is 181 to 183 °C.

Compound `COc1ccc(CC(=O)c2ccc(OCc3ccccc3)cc2O)cc1` displayed a melting point of 97 to 98 °C.

In turn, `Clc1cc(Cl)c(OCOCOc2c(Cl)cc(Cl)cc2Cl)c(Cl)c1` displayed a melting point of 179 to 181 °C.

In turn, `CC1(C)Oc2ccc(C#N)cc2[C@@H](NC2=CC(=O)OC2)[C@@H]1O` (relative stereo) returned a melting point of 182 °C.

For `CCCCCCCCCCCCCCCCCCNC(=O)c1ccc(OC(C)=O)cc1`, the melting point was 106 °C.

Regarding `Nc1ccc2ccc(-c3ccc(Cl)cc3)nc2n1`, the melting point was determined as 130 °C.

`Cc1cccc2nc(-c3ccccc3)sc12` had a melting point of 53 to 54 °C.

As to `COc1cccc2c1Sc1ccc(Cl)cc1C2`, the melting point is 95 to 96 °C.

Turning to `O=c1cc(O)cc(CBr)o1`, the melting point lay within 77 to 78 °C.

`COC(=O)C1=C(CCc2ccccc2)NC(CC(=O)N2CCN(C)CC2)=C(C(=O)OC)C1c1c(Cl)cccc1Cl` (stereo unspecified) showed a melting point of 138 to 139 °C.

`COc1ccc(-c2ccc(C#N)cc2C(F)(F)F)cc1C=O` displayed a melting point of 116 to 118 °C.

Turning to `C=C(C)Cc1cc(C=O)cc(OC)c1O`, the melting point is 53 to 54 °C.

Turning to `COc1ccc(CC(=O)NO[C@@H](C)c2ccccc2)cc1`, the melting point was in the range of 60 to 61 °C.

On to `CCOC(=O)Cn1cnc2c(Cl)nc(NC(=O)c3ccc(C4CCCCC4)cc3)nc21`, for which the melting point lay in the range of 90 to 107 °C.

On to `CCCCCCCc1cc2cn(C(CC)CC)c(=O)nc2o1`, for which the melting point lay within 128 to 130 °C.

For the compound `O=Cc1c2ccccc2cc2oc3ccccc3c12`, the melting point was 128 to 132 °C.

Regarding `CCC(C)N1CC(=O)N(C(C)CC)CC1=O` (stereo unspecified), the melting point lay in the range of 95.5 to 97.5 °C.

The compound `COc1cc(C(C)=O)ccc1OCCCCl` had a melting point of 57.8 to 58.5 °C.

`C=C(C)c1cnn(-c2ccnc3cc(Cl)ccc23)c1`: the melting point lay in the range of 85.5 to 88 °C.

As for `CC(=O)C(C(C)=O)C(=O)Nc1ccccc1`, the melting point lay within 119 to 121 °C.

Regarding `CCCCCC(CC(=O)O)c1cc(C(=O)CC)c(OC)cc1OC` (stereo unspecified), the melting point was in the range of 92.5 to 94 °C.

`O=c1[nH][nH]c(=O)c2c(O)c3ccc(I)cc3nc12` registered a melting point of 243 to 244 °C.

In the case of `Ic1ccc(N(c2ccccc2)c2ccccc2)cc1`, the melting point lay within 102 to 104 °C.

`Cn1nc(Br)c([N+](=O)[O-])c1NCc1ccccc1` displayed a melting point of 133 °C.

As to `COc1ccc(F)cc1Oc1c(NS(=O)(=O)c2ccc(C(C)(C)C)cc2)ncnc1OC[C@@H]1COC(C)(C)O1`, the melting point is > 86 °C.

The compound `CC(C)(CSc1ccc(Cl)cc1)C(O)Cn1ccnc1` (stereo unspecified) yielded a melting point of 109 to 110 °C.

Compound `C#CCN1CCN(c2c(Cl)cc3c(=O)c(C(=O)O)cn4c3c2CCC4C)CC1` (stereo unspecified) showed a melting point of 211 to 213 °C.

For the compound `O=C(OCc1nc(/C=C/c2cn(-c3ccccc3)nc2O)cs1)c1ccccc1`, the melting point lay in the range of 215 to 216 °C.

As for `COc1ccccc1C=Cc1nc2c([nH]1)c(=O)n(C)c(=O)n2C`, the melting point is > 300 °C.

Take `O=C(O)C(=Cc1c[nH]c2ncccc12)c1ccccc1`: the melting point was > 230 °C.

Regarding `CC(=O)OC1NC(=O)C2=C1CN=C(c1ccccc1Cl)c1cc(Cl)ccc12` (stereo unspecified), the melting point lay in the range of 172 to 174 °C.

Consider `COC(=O)c1cn(-c2ccc(F)cc2)c(-c2ccc(Cl)cc2)cc1=O`, for which the melting point lay in the range of 250 to 254 °C.

Consider `CCc1cc(-c2cc(N)n3nc(-c4ccco4)nc3c2)ccn1`, for which the melting point fell in the range of 184 to 186 °C.

With `CS(=O)(=O)C(=[N+]=[N-])S(C)(=O)=O`, the melting point lay within 120 to 124 °C.

In the case of `CC(C)(C)C(=O)C(Br)Oc1ccc(Cl)cc1Cl` (stereo unspecified), the melting point was determined as 70 °C.

Regarding `CCCCOC(=O)C=C(C)C=CC=C(C)C=Cc1c(C)cc(OC)c(C)c1C`, the melting point lay within 80 to 81 °C.

In turn, `CC(C)(C)OC(=O)N1CCC2(CC1)C(=O)Nc1ccccc12` gave a melting point of 138 to 140 °C.

On to `CCOC(=O)C(C)c1cc(C(C)(C)C)c(O)c(C(C)(C)C)c1` (stereo unspecified), for which the melting point lay in the range of 54 to 56 °C.

For `CC#CC(O)(C#CC)C1(Cl)CC(c2ccccc2)=CC=C1N` (stereo unspecified), the melting point lay within 112 to 114 °C.

Compound `N#CC=C(N)c1cccs1` came in with a melting point of 50 to 54 °C.

On to `CCN1CCN(CCCOc2cc3ncc(C#N)c(Nc4cc(OC)c(Cl)cc4Cl)c3cc2OC)CC1`, for which the melting point is 102 to 104 °C.

With `Cc1ccc(-c2ccccc2S(N)(=O)=O)cc1`, the melting point is 122 °C.

Compound `CCCc1c(OCCCCCCC2CC(=O)c3ccc(OCC(=O)OC)c(CCC)c3O2)ccc(C(C)=O)c1O` (stereo unspecified) gave a melting point of 121 to 124 °C.

Consider `C#CCOc1cc([N+](=O)[O-])c(F)cc1Cl`, for which the melting point was 88 to 89 °C.

`COC(=O)Cn1cc([C@H]2CCC3C4CC=C5C[C@@H](O)CC[C@]5(C)C4CC[C@@]32C)nn1` (stereo partly specified) gave a melting point of 221 to 223 °C.

Take `CC(=O)Nc1ccc(-c2cc(C(=O)c3ccc(Cl)cc3Cl)sc2N2CCOCC2)cc1`: the melting point is 145 °C.

For the compound `CNC(=S)NS(=O)(=O)c1cc(CCNC(=O)c2cc(C(C)(C)C)ccc2OC)ccc1OC`, the melting point lay in the range of 165 to 168 °C.

`CCCn1c(=O)n(Cc2ccccc2)c(=O)c2c(Cl)cc(Cl)cc21` had a melting point of 90 to 93 °C.

With `Cc1cc2cc([N+](=O)[O-])ccc2o1`, the melting point was 93 to 95 °C.

`CN(C)S(=O)(=O)c1cc(-c2csc(=Nc3ccccc3Cl)n2C)ccc1Cl` gave a melting point of 152 to 154 °C.

`COc1ccc(-c2nc3cc(Cl)c(Cl)cc3[nH]2)cc1N`: the melting point was > 300 °C.

Compound `Cc1ccc2c(c1)CC1(CCC(=O)CC1)C2` displayed a melting point of 68 to 70 °C.

`COc1nc(Cl)ccc1C=O` registered a melting point of 62 to 64 °C.

Consider `O=C(O)c1ccn2c1C(c1cccnc1)CC2` (stereo unspecified), for which the melting point came out at 210 °C.

Take `COc1cc2c(cc1OC)CC(=O)N(CCCN(C)C1CCc3cc(Cl)c(Cl)cc3C1)CC2` (stereo unspecified): the melting point was 130 °C.

`CC(C)(C)[N+]([O-])=Cc1ccccc1OCc1ccccc1` showed a melting point of 111 °C.

Take `COC(=O)c1nccnc1Cl`: the melting point worked out at 30 °C.

In the case of `CCOC(=O)c1ccc(NC(=O)C=C2c3ccccc3CCc3ccccc32)cc1`, the melting point is 178 to 180 °C.

With `COc1nc2c(Cl)cccc2s1`, the melting point lay in the range of 55 to 57 °C.

`CC(C)(C)c1ccc(SC(CCl)S(=O)(=O)c2ccc(Cl)cc2)cc1` (stereo unspecified) returned a melting point of 52 to 68 °C.

As to `Cc1nc2sccn2c1C1=NNC(=O)OC1`, the melting point was 294 °C.

Turning to `Cc1ccc(-c2c(C#N)nn(-c3c(Cl)cc(C(F)(F)F)cc3Cl)c2N)cc1`, the melting point was in the range of 243 to 244 °C.

Regarding `Cn1ncc(C(=O)c2ccc(Cl)cc2Cl)c1Cl`, the melting point is 81 to 83 °C.

For the compound `COc1ccc(-c2cnc(N)c(Sc3ccc(Cl)cc3)n2)cc1`, the melting point was 154 to 155 °C.

`COC(=O)c1ccc(C(=O)N(SSN(C(=O)c2ccc(C(=O)OC)cc2)c2ccccc2)c2ccccc2)cc1` registered a melting point of 276 to 278 °C.

`C[C@@H](NC(=O)c1cnn(-c2ccc(C(F)(F)F)cc2)c1N)[C@](O)(Cn1cncn1)c1ccc(F)cc1F` showed a melting point of 208 to 210 °C.

`O=C(Nc1ccc(/C=C/CO)c(F)c1)OCc1ccccc1` had a melting point of 105 to 106 °C.

With `C=C1N(CCCCCCC)C(=O)OC12CCN(Cc1ccccc1)CC2`, the melting point lay in the range of 47 to 48 °C.

Take `O=CCc1ccc2c(c1[N+](=O)[O-])C(=O)c1ccccc1C2=O`: the melting point was 192 °C.

`CCCCCCCCCCCCCCCCCCOc1cc(N(CC(=O)OC)CC(=O)OC)cc(S(C)=O)c1` (stereo unspecified) registered a melting point of 80 to 82 °C.

In turn, `COC(=O)c1ccc(-c2cc(-c3ccc(Cl)cc3)no2)cc1` registered a melting point of 225 to 226 °C.

The compound `Cc1c(Sc2ccc(Cl)cc2)nn(-c2ccc(S(C)(=O)=O)cc2)c(=O)c1C#N` yielded a melting point of 199 to 201 °C.

The compound `O=C(NC(CS)Cc1ccccc1)NC(CS)Cc1ccccc1` (stereo unspecified) showed a melting point of 136 to 138 °C.

The compound `C=C(c1ccn[nH]1)c1ccc(OCC(=O)OCC)c(Cl)c1Cl` displayed a melting point of 110 to 112 °C.

Compound `CCCC(=O)c1cc2c(=O)cc(C(=O)OCC)[nH]c2cc1C` returned a melting point of 173 to 175 °C.

As to `Cc1cccc(S(=O)(=O)Nc2onc(C)c2Br)c1`, the melting point was in the range of 138 to 140 °C.

For the compound `O=[N+]([O-])c1ccc(Oc2ccc(O)cc2)cc1`, the melting point lay within 173 to 174 °C.

Take `CCOC(=O)CCCOc1ccc(C(=O)Nc2ccccc2S(=O)(=O)c2ccccc2-c2nnn[nH]2)cc1`: the melting point lay within 182 to 184 °C.

The compound `O=C(Oc1ccc(OC(=O)c2ccc(O)c(O)c2)c2ccccc12)c1ccc(O)c(O)c1` returned a melting point of 261 °C.

`CN(Cc1ccc([N+](=O)[O-])cc1)C(CO)CO`: the melting point lay in the range of 65 to 66 °C.

Compound `O=C(C=Cc1cc([N+](=O)[O-])ccc1Cl)N1CCc2c([nH]c3ccccc23)C1c1ccc2c(c1)OCO2` (stereo unspecified) came in with a melting point of 146 °C.

As to `COC1C(C)OC(ON(C)Cc2ccc(-c3ncn(-c4ccc(OC(F)(F)F)cc4)n3)cc2)C(OC)C1OC` (stereo unspecified), the melting point lay within 93 to 100 °C.

Regarding `Oc1ccc(Cl)cc1CN1COC(c2ccc(C(F)(F)F)cc2)=N1`, the melting point lay in the range of 144 to 145 °C.

`CNc1ccc(C(=O)NCCC(=O)O)cc1[N+](=O)[O-]` gave a melting point of 187 to 190 °C.

The compound `CCCCCCCCCCCCCCC(C)(C(=O)O)C(=O)O` had a melting point of 83 to 85 °C.

Take `COc1cc(C(=O)NS(=O)(=O)c2ccccc2)ccc1Cn1ncc2ccc(NC(=O)CC3CCCC3)cc21`: the melting point is 167 to 169 °C.

With `CN(C(N)=O)c1ccc(C(O)(C(F)(F)F)C(F)(F)F)cc1`, the melting point fell in the range of 181 to 184 °C.

With `NC(=O)Cn1c(Cl)ccc1Cl`, the melting point fell in the range of 183 to 184 °C.

`COCOc1c(Cl)ccc(-c2cc(NC(C)=O)c(Cl)c(C(=O)OC)n2)c1F` had a melting point of 146 °C.

`Cc1ccccc1C(=O)N1CCC(=NO)c2ccc(Cl)cc21`: the melting point was in the range of 166 to 168 °C.

The compound `CN(C)c1ccc(S(=O)(=O)n2c(CCCC(=O)O)cc3nc(Cl)ccc32)c(Cl)c1` had a melting point of 208 °C.
